From US20050136492A1, “Affinity labeling of enzymes for detection of enzyme activity level in living cells” (priority 2001, published 2005) come the findings set out here.

Several values for one entry are separate records, joined by “and”; a condition that tells them apart may be missing. Equal entries are not always repeated.

Assay [1] deals with HL-60 cells. The assay can be described thus: Labeling of CPT-treated HL-60 cells with FLISP (FFCK, FLCK) and FLICA (FAM-VAD-FMK, SR-VAD-FMK) reagents, by LSC or fluorescence microscopy. The class given is cell-based, Human. As to conditions: for binding of the ligand by cells treated with CPT vs untreated (control) cells: HL-60, 3 h CPT, combined with PI; for fluorescence of labeled cells (appearance): dual labeling with SR-VAD-FMK, CPT-treated HL-60, microscopy/LSC imaging. The method, then: (§1) Preparation of reagents: Fluorescent inhibitors of serine proteases (FLISP) reagents, 5(6)-Carboxyfluoresceinyl-L-phenylalanylchloromethyl ketone (FFCK) and 5(6)-carboxyfluoresceinyl-L-leucylchloromethyl ketone (FLCK) were dissolved initially in dimethyl sulfoxide (DMSO; Sigma) to yield a 10 mM concentration. Aliquots were made from this stock solution and stored frozen at −20° C. protected from light. This reagent stock was then diluted directly into the cell culture media to give a 1× working reagent concentration of 10 μM. Dilution of the reagent into aqueous (cell culture) media is done just prior to cell exposure to preserve the labile chloromethyl ketone reactivity of FLISP reagent.
Fluorescent inhibitors of caspases (FLICA) reagents, namely the fluorescein labeled VAD-FMK (FAM-VAD-FMK) and sulforhodamine labeled VAD-FMK (SR-VAD-FMK) (Immunochemistry Technologies; Bloomington, Minn.) were both designed to detect the presence of active caspases within apoptotic cells. These inhibitors were dissolved in DMSO to obtain a 150× concentrated stock solution. Aliquots of these solutions were stored at −20° C. in the dark. Prior to use, a 30× working solution of either FAM-VAD-FMK or SR-VAD-FMK was prepared by diluting the stock solution 1:5 in phosphate buffered saline (PBS) and mixing until the solution become clear. The 30× working solution was diluted 1:30 cell culture media to give a final 1× working reagent concentration of 10 μM.
Cells: Human promyelocytic leukemic HL-60 cells were obtained from American Type Culture Collection (ATCC; Rockville, Md.). They were cultured in 25 mL FALCON flasks (Becton Dickinson Co., Franklin Lakes, N.J.) using RPMI 1640 supplemented with 10% fetal calf serum, 100 units/mL penicillin, […] and 2 mM L-glutamine (all from Gibco/BRL Life Technologies, Inc., Grand Island, N.Y.) in a humidified incubator set to maintain 37.5° C. and 5% CO2 as previously described (Bedner et al., Exp Cell Res., 2000, 259:308-313; Smolewski et al., Cytometry, 2001, 44:73-82). At the onset of experiments, there were fewer than 5×10^5 cells/ml in culture. To induce apoptosis the cells were treated with 0.15 μM DNA topoisomerase I inhibitor camptothecin (CPT; Sigma Chemical Co., St. Louis, Mo.) for 3 hours.
Cell staining and fluorescence measurement by LSC: The HL-60 cells from the untreated or CPT treated cultures were centrifuged (200 g, 5 min) and resuspended in PBS at approximately 10^4 cells per 5 mL volume. Cells were then attached electrostatically to microscope slides as described before (Bedner et al., Exp Cell Res., 2000, 259:308-313; Smolewski et al., Cytometry, 2001, 44:73-82). The attachment was achieved by the incubation (15 min) of cells suspended in serum-free PBS in shallow (<1 mm depth; 1.5×1.5 cm) wells on horizontally placed microscope slides that were rinsed in 100% ethanol and air dried prior to use, at 100% humidity. The electrostatically attached cells remain viable, exclude such dyes as trypan blue and propidium iodide (PI), and have unchanged morphology for several hours (Bedner et al., Exp Cell Res., 2000, 259:308-313). After the cells became attached, PBS was removed from the wells and was replaced by 150 μL of the culture medium containing 10% FCS. FLISP staining solutions were prepared by diluting 5 μL of the 10 mM FFCK or FLCK stock solution into 5 mL of culture medium yielding a final FLISP concentration 10 μM. […]

The subject of assay [2] is HL-60 cells. Kind of assay: Pretreatment of HL-60 cells with unlabeled protease inhibitors during CPT induction of apoptosis; subsequent binding of FAM-VAD-FMK, FFCK or FLCK measured by LSC. The class given is cell-based, Human. As to conditions: HL-60, 0.15 μM CPT 3 h, pretreatment with unlabeled inhibitor (Z-VAD-FMK 50 μM); probe 10 μM; mean ± SE of three experiments. The method, then: as §1
Fluorescent inhibitors of caspases (FLICA) reagents, namely the fluorescein labeled VAD-FMK (FAM-VAD-FMK) and sulforhodamine labeled VAD-FMK (SR-VAD-FMK) (Immunochemistry Technologies; Bloomington, Minn.) were both designed to detect the presence of active caspases within apoptotic cells. These inhibitors were dissolved in DMSO to obtain a 150× concentrated stock solution. Aliquots of these solutions were stored at −20° C. in the dark. […]
Cell staining and fluorescence measurement by LSC: The HL-60 cells from the untreated or CPT treated cultures were centrifuged (200 g, 5 min) and resuspended in PBS at approximately 10^4 cells per 5 mL volume. […]

As to “5(6)-Carboxyfluoresceinyl-L-phenylalanylchloromethyl ketone [FFCK]”, in assay [1], the “binding of the ligand by cells treated with CPT vs untreated (control) cells” value is listed as “induced binding” and the “fluorescence of labeled cells (appearance)” value is “strong”.
Turning to “5(6)-Carboxyfluorescyl-L-leucylchloromethyl ketone [FLCK]”, in assay [1], the “binding of the ligand by cells treated with CPT vs untreated (control) cells” value is recorded as “induced binding” and the “fluorescence of labeled cells (appearance)” value is “faint”. Besides, in assay [1] (identical settings of photomultiplier sensitivity), the “greater fluorescence intensity of FLCK labeled cells compared to cells labeled with FFCK” value was “approximately 60%”.
With “N-tosyl-L-phenylalanine chloromethyl ketone [TPCK]”, the “percent decrease in frequency of FLCK labeled cells vs cells treated with CPT without unlabeled inhibitor” value in assay [2] was 38.9% and 38.9 ± 1.7%.
